The results in this text go back to paper PMC3676766, “New Radioligands for Describing the Molecular Pharmacology of MT1 and MT2 Melatonin Receptors” (International Journal of Molecular Sciences, 2013).

The target in assay [1] is T1, hMT1 (Homo sapiens, UniProt P48039).
T1 construct: expressed in transfected cells; membranes or whole cells
In words: [125I]-2IMLT competition binding, CHO-K1 membranes, hMT1. Conditions: 20 pM [125I]-2IMLT, 2 h 37 °C, mean ± SEM, read-out: Affinity pKi (converted). On the procedure:
(§1) CHO-K1 cell lines stably expressing the human MT1 or MT2 receptors were grown to confluence, harvested in PBS buffer (Gibco, Invitrogen, Saint-Aubin, France) containing 5 mM EDTA, and centrifuged at 1,000 g for 20 min (4 °C). The resulting pellet was suspended in 5 mM Tris/HCl (pH 7.4) containing 2 mM EDTA and homogenized using Kinematicapolytron. The homogenate was then centrifuged (20,000 g, 30 min, 4 °C) and the resulting pellet suspended in 75 mM Tris/HCl (pH 7.4) containing 2 mM EDTA and 12.5 mM MgCl2. Protein content was determined according to Bradford using the Bio-Rad kit (Bio-Rad SA, Ivry-sur-Seine, France). Aliquots of membrane preparations were stored in re-suspension buffer (75 mM Tris/HCl pH 7.4, 2 mM EDTA, 12.5 mM MgCl2) at −80 °C until use.
(§2) The assays were described previously. […] The results were expressed as the inhibition constant Ki, taking into account the concentration of radioligand used in each experiment. Non-specific binding was defined using 10 μM melatonin. The reaction was stopped by rapid filtration through GF/B unifilters, followed by three successive washes with ice-cold buffer. The data were analyzed using the program PRISM (GraphPad Software Inc., San Diego, CA, USA).

The target of assay [2] is T2, hMT2 (Homo sapiens, UniProt P49286).
T2 construct: expressed in transfected cells; membranes or whole cells
T2 sequence (P49286 1-362): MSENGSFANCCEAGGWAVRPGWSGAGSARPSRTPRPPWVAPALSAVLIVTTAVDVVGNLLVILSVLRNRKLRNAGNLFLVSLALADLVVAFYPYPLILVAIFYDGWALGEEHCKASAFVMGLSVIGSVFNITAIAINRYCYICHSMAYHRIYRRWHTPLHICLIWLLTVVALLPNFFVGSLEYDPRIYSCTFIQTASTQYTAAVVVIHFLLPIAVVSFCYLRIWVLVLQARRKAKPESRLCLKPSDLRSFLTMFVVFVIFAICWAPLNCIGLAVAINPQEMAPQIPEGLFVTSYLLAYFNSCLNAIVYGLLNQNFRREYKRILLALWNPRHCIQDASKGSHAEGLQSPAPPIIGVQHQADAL
In words: [125I]-2IMLT competition binding, CHO-K1 membranes, hMT2. Conditions: for Difference in affinity MT2 versus MT1: Ki/pKi better for MT2 than for MT1; for Ki: hMT2. On the procedure:
as §1, §2

For assay [3], the target named is T1, hMT1. The assay can be described thus: [35S]-GTPγS binding assay, hMT1. The assay is classed as biochemical. Conditions: for EC50: mean ± SEM, read-out: [35S]-GTPγS pEC50 (converted); for Emax / [35S]-GTPγS Emax (%): percentage of melatonin (1 μM = 100%). How it is done:
(§3) CHO-K1 cell lines stably expressing the human MT1 or MT2 receptors were grown to confluence, harvested in PBS buffer (Gibco, Invitrogen, Saint-Aubin, France) containing 5 mM EDTA, and centrifuged at 1,000 g for 20 min (4 °C). The resulting pellet was suspended in 5 mM Tris/HCl (pH 7.4) containing 2 mM EDTA and homogenized using Kinematicapolytron. […] Protein content was determined according to Bradford using the Bio-Rad kit (Bio-Rad SA, Ivry-sur-Seine, France).
(§4) For the [^35S]-GTPγS binding assay, the membranes and compounds were diluted in the binding buffer (20 mM Hepes pH 7.4, 100 mM NaCl, 3 mM MgCl2, 3 μM GDP) in the presence of 20 μg/mL saponin in order to enhance the agonist-induced stimulation. Incubation was started by adding 0.1 nM [^35S]-GTPγS to the membranes and ligands in a final volume of 250 μL and allowed to continue for 60 min at room temperature. Non-specific binding was assessed using non-radiolabeled GTPγS (10 μM). Reactions were stopped by rapid filtration through GF/B unifilters pre-soaked with distilled water, followed by three successive washes with ice-cold buffer.
A general note: GTPγS is a poorly hydrolysed GTP analogue; its binding reports G protein activation.

Assay [4] concerns the target T2, hMT2. In words: [35S]-GTPγS binding assay, hMT2. The assay is classed as biochemical. Conditions: for EC50: mean ± SEM, read-out: [35S]-GTPγS pEC50 (converted); for Emax / [35S]-GTPγS Emax (%): percentage of melatonin (1 μM = 100%). How it is done:
as §3, §4

Assay [5] addresses T2, hMT2. The assay can be described thus: Saturation binding of iodinated radioligands, CHO-K1-hMT2 membranes. Conditions: Scatchard; for Bmax: saturation. On the procedure: as §1
The assays were performed in 96-well plates in 250 μL binding buffer (50 mM Tris/HCl pH 7.4, 5 mM MgCl2, 1 mM EDTA, plus BSA 0.1% for [^125I]-DIV880). The membranes, hMT1 and hMT2, were used at a final concentration of 30 μg of proteins/mL for all radioactive compounds. For all protocols, the reaction was stopped by rapid filtration through GF/B unifilters (PEI 0.1% treated for [^125I]-DIV880), followed by three successive washes with ice-cold buffer (50 mM Tris/HCl, pH 7.4).
(§5) The data were analyzed using the program PRISM (GraphPad Software Inc., San Diego, CA, USA). For the saturation assay, the binding site density (Bmax) and dissociation constant for the radioligand (Kd) were calculated according to the Scatchard method.

Assay [6] has as its target T1, hMT1. The assay can be described thus: HTRF (TR-FRET) cAMP assay, CHO-K1 cells expressing hMT1. The assay is classed as cell-based. Conditions: 5 μM forskolin; for EC50: read-out: TR-FRET-cAMP pEC50 (converted). How it is done: (§6) Cellular cAMP production was measured using cAMP dynamic HTRF kits (Cisbio Bioassays, Bedford, MA, USA) according to the manufacturer’s instructions. CHO-K1 cells stably expressing the hMT1 or hMT2 receptor were grown to confluence, harvested in PBS buffer containing 5 mM EDTA, and centrifuged at 100× g for 10 min (4 °C). […] Next, 15 μL of cAMP-d2 conjugate and 15 μL of anti-cAMP-EuK conjugate in lysis buffer were incubated for 30 min at room temperature. […] Non-specific binding was assessed using 100 μM non-labeled cAMP. The data were analyzed using the program PRISM to yield the EC50 and Emax.
For orientation: TR-FRET usually uses a lanthanide donor and a delayed reading to cut background.

For assay [7], the target named is T2, hMT2. In words: HTRF (TR-FRET) cAMP assay, CHO-K1 cells expressing hMT2. Conditions: 5 μM forskolin; for EC50 / TR-FRET-cAMP Emax (%): hMT2; for EC50: read-out: TR-FRET-cAMP pEC50 (converted). The assay is classed as cell-based. How it is done: as §6
Assay [8] deals with standard set of receptors and a small number of enzymatic targets. In words: Standard selectivity procedure (Cerep panel). The assay is classed as binding. Conditions: at 10 μM, cold compounds, transporters, channels, caspase-3, EGFR kinase, PKCα.
Source text: […]

The target in assay [9] is T1, hMT1. In words: Saturation binding of iodinated radioligands, CHO-K1-hMT1 membranes. Conditions: Scatchard. How it is done: as §1
The assays were performed in 96-well plates in 250 μL binding buffer (50 mM Tris/HCl pH 7.4, 5 mM MgCl2, 1 mM EDTA, plus BSA 0.1% for [^125I]-DIV880). The membranes, hMT1 and hMT2, were used at a final concentration of 30 μg of proteins/mL for all radioactive compounds. […]
as §5

Setting [10] is: 20 pM [125I]-2IMLT, 2 h 37 °C, mean ± SEM, read-out: Affinity pKi (converted).
Where [11] appears, read: hMT1, read-out: [35S]-GTPγS Emax (%).
Where [12] appears, read: CHO-K1, hMT2, read-out: TR-FRET-cAMP Emax (%).
Setting [13] is: CHO-K1, read-out: TR-FRET-cAMP Emax (%), hMT1.
Where [14] appears, read: CHO-K1, read-out: TR-FRET-cAMP Emax (%), hMT2.

“And” between values parts separate entries of the source, which are not always exact repeats. Identical values can stand only once. Like-named read-outs stand apart in the source and are kept apart here.

T1 sequence (P48039 whole entry): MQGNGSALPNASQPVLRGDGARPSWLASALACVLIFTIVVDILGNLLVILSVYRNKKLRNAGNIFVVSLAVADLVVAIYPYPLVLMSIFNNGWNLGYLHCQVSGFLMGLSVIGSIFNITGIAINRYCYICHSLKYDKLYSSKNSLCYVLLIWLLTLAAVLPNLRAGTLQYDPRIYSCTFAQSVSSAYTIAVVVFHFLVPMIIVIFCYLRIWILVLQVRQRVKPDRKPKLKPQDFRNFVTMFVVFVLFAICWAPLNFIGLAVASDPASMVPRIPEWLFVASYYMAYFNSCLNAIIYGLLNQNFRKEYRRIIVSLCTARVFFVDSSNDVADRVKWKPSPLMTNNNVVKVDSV

As for `COc1cc(Br)c(Cc2cc(OC)c(OC)cc2CC(=O)OC(C)(C)C)cc1OC` [DIV879, Tert-butyl 2-(2-[(2-bromo-4,5-dimethoxyphenyl)methyl]-4,5-dimethoxyphenyl) Acetate], the Ki in assay [1] is 562 nM; in [2] (setting [10]) it was 7.24 nM. In [2], the “Difference in affinity MT2 versus MT1” value is given as “at least 2 logs”. The figures for the EC50 in assay [3] (hMT1) and in assay [4] were greater than 10000 nM and 12.3 nM, respectively. Moreover, the maximal effect (Emax) in [4] was 58 ± 2%.
With `COc1ccc2[nH]c(-c3cccc4ccccc34)c(CCNC(=O)C[125I])c2n1` [[^125I]-S70254], in assay [5] (saturation 0.01–2 nM radioligand), the negative logarithm of the Kd (pKd) was found to be 9.61 ± 0.14. Also, in [5], the Bmax was 1,778 ± 87 fmol/mg of protein.
Consider `COc1cc(I)c(Cc2cc(OC)c(OC)cc2CC(=O)OC(C)(C)C)cc1OC` [DIV880], for which the Ki in [1] is 832 nM; in assay [2] (setting [10]) it was 9.55 nM; in assay [2] (approximate range in text, read-out: affinity for MT2 (range given)), roughly 10 nM. The “Difference in affinity MT2 versus MT1” value in [2] amounted to 2 logs. The EC50 in assay [3] (hMT1) was 1260 nM; in assay [4], 10.7 nM; in assay [6] (hMT1), greater than 10000 nM; in assay [7], 16.2 nM. Further, the maximal effect (Emax) in assay [3] (setting [11]) worked out at 10 ± 1%; in assay [4] it was 67 ± 8%; in [7] (setting [12]), 97 ± 1%. The “effect on selectivity panel targets” value in [8] is on record as “less than 20%”.
For `COc1ccc2[nH]c(I)c(CCNC(C)=O)c2c1` [2IMLT, 2-iodomelatonin, reference compound], the “[35S]-GTPγS Emax (%)” value in assay [3] (hMT1) is 108 ± 3%; in [4] it was 121 ± 13%. For the same molecule, the Emax in [3] (read-out: [35S]-GTPγS Emax (%), hMT1) was greater than 100%; in assay [6] (setting [13]), roughly 100%; in assay [7] (setting [14]), roughly 100%.
As for `COc1ccc2[nH]cc(CCNC(=O)CI)c2c1` [SD6, N-[2-(5-methoxy-1H-indol-3-yl)ethyl]iodoacetamide], the “[35S]-GTPγS Emax (%)” value in assay [3] (hMT1) was determined as 115 ± 10%; in assay [4], 114 ± 16%. Besides, the Emax in [3] (setting [11]) is greater than 100%; in assay [4] it was greater than 100%; in assay [6] (setting [13]), roughly 100%; in assay [7] (setting [14]), roughly 100%. Further, the entries for the “TR-FRET-cAMP Emax (%)” value in assay [6] (hMT1) and in [7] were 103 ± 10% and 103 ± 1%, respectively. Moreover, the Bmax in assay [9] is recorded as 276 fmol/mg of protein.
In the case of `COc1ccc2[nH]c([125I])c(CCNC(C)=O)c2c1` [[^125I]-2IMLT, 2-[^125I]-iodomelatonin], the Bmax was 688 fmol/mg of protein and 688 ± 153 fmol/mg of protein in assay [9]; 1,998 ± 318 fmol/mg of protein in assay [5].
On to `COc1ccc2[nH]c(-c3cccc4ccccc34)c(CCNC(=O)CI)c2n1` [S70254, 2-iodo-N-2-[5-methoxy-2-(naphthalen-1-yl)-1H-pyrrolo[3,2-b]pyridine-3-yl] Acetamide], for which the Ki in assay [1] was 661 nM; in assay [2] (setting [10]) it was 1.86 nM. Besides, the EC50 was 79.4 nM in [3] (hMT1), 2.04 nM in [4], 1450 nM in [6] (hMT1) and 33.9 nM in [7]. The Emax in [3] (setting [11]) is 15 ± 2%; in assay [4], 43 ± 1%; in assay [6] (CHO-K1, hMT1, read-out: TR-FRET-cAMP Emax (%)), 78 ± 12%; in assay [7] (setting [12]), 73%. In addition, the “TR-FRET-cAMP Emax (%)” value in [7] amounted to 76.5 ± 1%. The “effect on selectivity panel targets” value in assay [8] is listed as “less than 20%”.

In general, Emax refers to the maximal effect, on the per cent scale that the assay sets. One may read the pKd as −log10 of the Kd, conventionally taken in molar units. Low readings indicate a large Kd, high ones a small Kd.
